The record followed here is US4161527A, “Antibiotic compositions” (priority 1976, dated 1979).

A short description of data set [1]: Color of the Samples 3 hours after dissolution. In kind it is physicochemical. As to conditions: 3 ml. of distilled water.
Data set [2] in a line: Dissolution time on addition of 3 ml. of distilled water. In kind it is physicochemical. As to conditions: shaken vigorously.
Description: To each of the Samples was added 3 ml. of distilled water and the times of dissolution were measured. […] Provided that, in dissolution, Samples A and B were allowed to stand, while Sample C was shaken vigorously.
Data set [3] relates to local tissue at the sites of injection. The data set can be described thus: Local reactions at the sites of intramuscular injection (general statement). In kind it is in vivo. As to conditions: intramuscularly injected.
Data set [4] relates to Staphylococcus aureus 1840. Briefly: Antibacterial spectrum (agar dilution), M.I.C. In kind it is cell-based. (In agar dilution the substance is mixed into plates at graded concentrations.)
In data set [5] the test system is Krebsiella pneumoniae DT. Briefly: Antibacterial spectrum (agar dilution), M.I.C. In kind it is cell-based.
Data set [6] relates to Gram-positive and Gram-negative bacteria. In kind it is cell-based.
Data set [7] relates to Proteus vulgaris IFO 3988. Briefly: Antibacterial spectrum (agar dilution), M.I.C. The settings on record: IFO3988. In kind it is cell-based.
A short description of data set [8]: Storage stability (general statement). In kind it is physicochemical.
Data set [9] concerns Escherichia coli 0-111. Briefly: Antibacterial spectrum (agar dilution), M.I.C. In kind it is cell-based. The settings on record: 0111. An excerpt: (§1) The antibacterial potency (M.I.C.) and toxicity of TTC
(§2) (1) Antibacterial spectrum (agar dilution)

Data set [10] has as its system Escherichia coli T-7. The data set can be described thus: Antibacterial spectrum (agar dilution), M.I.C. The settings on record: T7. In kind it is cell-based.
Description: as §1, §2

A short description of data set [11]: Dissolution in a solvent such as distilled water (general statement). In kind it is physicochemical.
Data set [12] has as its system Proteus morganii IFO 3848. Briefly: Antibacterial spectrum (agar dilution), M.I.C. The settings on record: Morganella morganii, IFO3848. In kind it is cell-based.
Data set [13] deals with Staphylococcus aureus FDA 209 P. Briefly: Antibacterial spectrum (agar dilution), M.I.C. In kind it is cell-based. The settings on record: FDA209.
Data set [14] has as its system Escherichia coli NIHJ JC-2. The data set can be described thus: Antibacterial spectrum (agar dilution), M.I.C. In kind it is cell-based. As to conditions: NIHJJC2.

The structures appear in SMILES notation. Structures can show the parent of a compound that is named as a salt.

`CN(C)CCn1nnnc1SCC1=C(C(=O)O)N2C(=O)[C@@H](NC(=O)Cc3csc(=N)[nH]3)[C@H]2SC1` [TTC hydrate, 7β-[2-(2-imino-4-thiazolin-4-yl)acetamido]-3-{1-[2-(N,N-dimethylamino)ethyl]-1-H-tetrazol-5-yl}thiomethyl-3-cephem-4-carboxylic acid dihydrochloride hydrate]: the “Color 3 hours after dissolution” value in data set [1] is given as “Reddish yellow”. For the same molecule, the Dissolution time in [2] was found to be 180 s.
As to `CN(C)CCn1nnnc1SCC1=C(C(=O)O)N2C(=O)[C@@H](NC(=O)Cc3csc(N)n3)[C@H]2SC1.Cl.Cl` [TTC, 7β-[2-(2-imino-4-thiazolin-4-yl)acetamido]-3-{1-[2-(N,N-dimethylamino)ethyl]-1H-tetrazol-5-yl}thiomethyl-3-cephem-4-carboxylic acid dihydrochloride], the “local reactions at the sites of injection” value in data set [3] was “necrosis of muscle cells, discoloration or brown degeneration of the local tissue, hyperemia and other local reactions at the sites of injection”. Also, the MIC amounted to 0.78 µg/mL in data set [4]; 0.1 µg/mL in data set [5]; 1.56 µg/mL in data set [7]; 0.05 µg/mL in data set [9]; 1.56 µg/mL in data set [10]; 0.39 µg/mL in [12]. Moreover, the minimum inhibitory concentration (MIC) in [13] is 0.39 µg/mL; in [14], 0.2 µg/mL. The antibacterial activity result in data set [6] is “strong antibacterial activity against Gram-positive and Gram-negative bacteria”. The stability in storage entry in data set [8] is given as “stable in storage”. The dissolution result in data set [11] was “rather slow to be dissolved”.

As a reminder, the MIC is the lowest concentration that inhibits growth of the organism.
